Reference: ChEMBL document CHEMBL1777746, “1,5-Substituted nipecotic amides: selective PDE8 inhibitors displaying diastereomer-dependent microsomal stability” (Bioorg Med Chem Lett, 2011)

Experiments:
[1] = Dissociation constant, pKa of the compound; format: physicochemical
[2] = Lipophilicity, log D of the compound; format: physicochemical; conditions: octanol/water
[3] = Intrinsic clearance in human liver microsomes; format: ADME, Microsome
[4] = Half life in human liver microsomes; format: ADME, Microsome
[5] = target: High affinity cAMP-specific and IBMX-insensitive 3',5'-cyclic phosphodiesterase 8B (Homo sapiens, UniProt O95263); experiment: Inhibition of PDE8B
High affinity cAMP-specific and IBMX-insensitive 3',5'-cyclic phosphodiesterase 8B, sequence (O95263 whole entry): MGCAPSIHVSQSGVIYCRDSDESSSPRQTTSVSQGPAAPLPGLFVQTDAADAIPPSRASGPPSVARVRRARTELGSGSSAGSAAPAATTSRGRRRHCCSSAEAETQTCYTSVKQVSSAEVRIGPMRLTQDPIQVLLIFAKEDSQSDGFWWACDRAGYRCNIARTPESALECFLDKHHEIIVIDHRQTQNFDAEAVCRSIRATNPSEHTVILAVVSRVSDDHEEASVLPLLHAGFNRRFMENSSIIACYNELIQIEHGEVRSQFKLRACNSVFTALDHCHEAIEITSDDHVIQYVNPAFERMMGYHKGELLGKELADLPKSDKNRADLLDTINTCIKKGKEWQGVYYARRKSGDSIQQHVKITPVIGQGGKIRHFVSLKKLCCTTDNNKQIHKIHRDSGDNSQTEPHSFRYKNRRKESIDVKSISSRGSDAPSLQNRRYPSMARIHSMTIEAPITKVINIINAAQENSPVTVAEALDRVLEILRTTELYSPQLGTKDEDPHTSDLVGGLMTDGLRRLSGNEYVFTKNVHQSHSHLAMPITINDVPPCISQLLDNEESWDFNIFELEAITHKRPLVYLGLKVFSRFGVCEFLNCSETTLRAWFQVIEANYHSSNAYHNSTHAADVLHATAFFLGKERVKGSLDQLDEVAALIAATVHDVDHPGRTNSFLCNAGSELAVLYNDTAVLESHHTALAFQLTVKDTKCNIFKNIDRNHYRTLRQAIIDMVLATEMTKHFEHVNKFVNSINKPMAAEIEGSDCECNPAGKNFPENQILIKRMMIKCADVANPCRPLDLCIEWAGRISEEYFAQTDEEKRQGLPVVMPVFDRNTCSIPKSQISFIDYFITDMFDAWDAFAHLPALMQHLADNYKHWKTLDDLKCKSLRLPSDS

[6] = Clearance in rat; format: ADME, organism-based; conditions: in vivo
[7] = Volume of distribution at steady state in rat; format: ADME, organism-based; conditions: in vivo, read-out: Vdss
[8] = Oral bioavailability in rat; format: ADME, organism-based; conditions: in vivo

SMILES	microsomal CLint [3] [µL/min/mg]	half-life [4] [min]	further results
COCC1CC(C(=O)NC[C@H]2CCCO2)CN(Cc2nc(N3CCOCC3)oc2C)C1 (stereo not given in full)	–	–	pKa [1]: 7.2; logD [2]: 1; logD ([2]; read-out: logD): 0.8
Cc1cccc(CNC(=O)C2CCCN(Cc3nc(-c4ccccc4)oc3C)C2)n1 (stereo not given)	158	5.76	–
Cc1cccc(CNC(=O)C2CN(Cc3nc(-c4ccccc4)oc3C)CCO2)n1 (stereo not given)	–	–	IC50 [5]: > 10 µM
Cc1cccc(CNC(=O)[C@@H]2CCN(Cc3nc(-c4ccccc4)oc3C)C2)n1	–	–	IC50 [5]: > 10 µM
CC[C@@H]1C[C@@H](C(=O)NCc2cccc(C)n2)CN(Cc2nc(-c3ccccc3)oc2C)C1	–	–	clearance [6]: 98 mL/min/kg; Vd [7]: 1.4 L/kg; bioavailability [8]: 7%
CC[C@@H]1C[C@@H](C(=O)NCC2CCOCC2)CN(Cc2nc(-c3ccccc3)oc2C)C1	320	< 3	–
COC[C@@H]1C[C@@H](C(=O)NCC2CCOCC2)CN(Cc2nc(-c3ccccc3)oc2C)C1	239	4.09	–
CC[C@@H]1C[C@@H](C(=O)NCc2cccc(N)n2)CN(Cc2nc(N3CCOCC3)oc2C)C1	110	8.9	–
Cc1cccc(CNC(=O)[C@@H]2C[C@@H](c3nc(C)no3)CN(Cc3nc(-c4ccccc4)oc3C)C2)n1	105	–	–
Cc1oc(-c2ccccc2)nc1CN1CCC[C@@H](C(=O)NCc2cccc(N)n2)C1	49	20.5	–
Cc1oc(-c2ccccc2)nc1CN1CCC[C@@H](C(=O)NC[C@H]2CCCO2)C1	84	11.6	–
Cc1cccc(CNC(=O)[C@@H]2C[C@@H](c3nnc(C)o3)CN(Cc3nc(-c4ccccc4)oc3C)C2)n1	290	–	–
Cc1oc(-c2ccccc2)nc1CN1C[C@H](C(=O)NCc2cccc(N)n2)C[C@@H](c2ccccc2)C1	> 300	–	–
CC[C@H]1C[C@@H](C(=O)NCc2cccc(C)n2)CN(Cc2nc(-c3ccccc3)oc2C)C1	118	7.71	–
CC[C@H]1C[C@H](C(=O)NCc2cccc(C)n2)CN(Cc2nc(-c3ccccc3)oc2C)C1	304	3	–
COC[C@H]1C[C@H](C(=O)NCc2cccc(C)n2)CN(Cc2nc(-c3ccccc3)oc2C)C1	304	< 3	–
COC[C@H]1C[C@@H](C(=O)NCc2cccc(C)n2)CN(Cc2nc(-c3ccccc3)oc2C)C1	99.5	9.17	–
Cc1oc(-c2ccccc2)nc1CN1CCCC(C(=O)NCC2CCOCC2)C1 (stereo not given)	105	9.34	–
Cc1cccc(CNC(=O)[C@H]2C[C@H](c3nc(C)no3)CN(Cc3nc(-c4ccccc4)oc3C)C2)n1	290	< 3	–
Cc1cccc(CNC(=O)[C@H]2C[C@H](c3nnc(C)o3)CN(Cc3nc(-c4ccccc4)oc3C)C2)n1	290	< 3	–
Cc1noc([C@@H]2C[C@@H](C(=O)NC[C@@H]3CCCO3)CN(Cc3nc(-c4ccccc4)oc3C)C2)n1	182	5.68	–
CC[C@H]1C[C@@H](C(=O)NCc2cccc(N)n2)CN(Cc2nc(N3CCOCC3)oc2C)C1	31.4	31.1	–
CC[C@@H]1C[C@@H](C(=O)NCc2cccc(N)n2)CN(Cc2nc(-c3ccccc3)oc2C)C1	281	3.47	–
CC[C@@H]1C[C@@H](C(=O)NCC2CCOCC2)CN(Cc2nc(N3CCOCC3)oc2C)C1	142	6.88	–
CC[C@H]1C[C@@H](C(=O)NCC2CCOCC2)CN(Cc2nc(N3CCOCC3)oc2C)C1	40.6	24.1	–
CC[C@H]1C[C@@H](C(=O)NCC2CCOCC2)CN(Cc2nc(-c3ccccc3)oc2C)C1	226	4.32	–
Cc1oc(-c2ccccc2)nc1CN1CCC[C@@H](C(=O)NC[C@@H]2CCCO2)C1	69.1	14.1	–
COC[C@@H]1C[C@@H](C(=O)NCC2CCOCC2)CN(Cc2nc(N3CCOCC3)oc2C)C1	31.7	30.8	–
COC[C@H]1C[C@@H](C(=O)NCC2CCOCC2)CN(Cc2nc(N3CCOCC3)oc2C)C1	19.3	50.7	–

The next lines start with results.

microsomal CLint [3] [µL/min/mg]	half-life [4] [min]	SMILES	further results
63	15.5	COC[C@@H]1C[C@@H](C(=O)NCC2CCOCC2)CN(Cc2[nH]c(-c3ccncn3)nc2C)C1	–
41	23.7	COC[C@@H]1C[C@@H](C(=O)NC[C@H]2CCCO2)CN(Cc2nc(N3CCOCC3)oc2C)C1	–
190	–	CC[C@@H]1C[C@@H](C(=O)NC[C@H]2CCCO2)CN(Cc2nc(-c3ccncn3)[nH]c2C)C1	–
320	< 3	CC[C@@H]1C[C@@H](C(=O)NC[C@@H]2CCCO2)CN(Cc2nc(-c3ccccc3)oc2C)C1	–
195	5	CC[C@@H]1C[C@@H](C(=O)NC[C@@H]2CCCO2)CN(Cc2[nH]c(-c3ccncn3)nc2C)C1	–
233	4.2	COC[C@@H]1C[C@@H](C(=O)NC[C@H]2CCCO2)CN(Cc2nc(-c3ccccc3)oc2C)C1	–
40.3	24.2	COC[C@H]1C[C@@H](C(=O)NC[C@H]2CCCO2)CN(Cc2nc(-c3ccccc3)oc2C)C1	–
< 8	> 120	COC[C@H]1C[C@@H](C(=O)NC[C@H]2CCCO2)CN(Cc2nc(N3CCOCC3)oc2C)C1	–
131	7.45	CC[C@@H]1C[C@@H](C(=O)NC[C@@H]2CCCO2)CN(Cc2nc(N3CCOCC3)oc2C)C1	–
18.9	51.7	CC[C@H]1C[C@@H](C(=O)NC[C@@H]2CCCO2)CN(Cc2nc(N3CCOCC3)oc2C)C1	–
> 320	< 3	CC[C@@H]1C[C@@H](C(=O)NC[C@H]2CCCO2)CN(Cc2nc(-c3ccccc3)oc2C)C1	–
120	8.15	CC[C@H]1C[C@@H](C(=O)NC[C@H]2CCCO2)CN(Cc2nc(-c3ccccc3)oc2C)C1	–
19.9	49.2	COC[C@H]1C[C@@H](C(=O)NCC2CCOCC2)CN(Cc2nc(-c3ccncn3)[nH]c2C)C1	–
